In PubChem BioAssay AID2060509 (Molecular Pharmacology Branch, DTP, NCI, 2025):

Test system: 485176-168-R4-J1-PDC spheroids with HUVEC/MSC, viability
Assay: Anticancer human tumor 485176-168-R4-J1-PDC patient-derived pancreatic adenocarcinoma cell line growth inhibition [GQUAD]
Conditions: for IC50: curve of first compound; for viability, T/C: stronger effect = lower value
Procedure, shortened: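 Viability of tumor cells grown as complex spheroids with endothelial and stromal cells, exposed to drug combinations. Top concentration at or near clinical Cmax (else 10 microM), diluted in half-log increments.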

[1] = second compound 0.0316 µM, first compound 0.0316 µM
[2] = second compound 0.0316 µM, first compound 0.316 µM
[3] = second compound 0.1 µM, first compound 0.0316 µM
[4] = second compound 0.1 µM, first compound 0.316 µM
[5] = second compound 0.316 µM, first compound 0.0316 µM
[6] = second compound 0.316 µM, first compound 0.316 µM
[7] = second compound 1 µM, first compound 0.0316 µM
[8] = second compound 1 µM, first compound 0.316 µM
[9] = second compound 3.16 µM, first compound 0.0316 µM
[10] = second compound 3.16 µM, first compound 0.316 µM
[11] = second compound 10 µM, first compound 0.0316 µM
[12] = second compound 10 µM, first compound 0.316 µM
[13] = second compound 0.0316 µM, first compound 0.1 µM
[14] = second compound 0.0316 µM, first compound 1 µM
[15] = second compound 0.0316 µM, first compound 3.16 µM
[16] = second compound 0.0316 µM, first compound 10 µM
[17] = second compound 0.1 µM, first compound 0.1 µM
[18] = second compound 0.1 µM, first compound 1 µM
[19] = second compound 0.1 µM, first compound 3.16 µM
[20] = second compound 0.1 µM, first compound 10 µM
[21] = second compound 0.316 µM, first compound 0.1 µM
[22] = second compound 0.316 µM, first compound 1 µM
[23] = second compound 0.316 µM, first compound 3.16 µM
[24] = second compound 0.316 µM, first compound 10 µM
[25] = second compound 1 µM, first compound 0.1 µM
[26] = second compound 1 µM, first compound 1 µM
[27] = second compound 1 µM, first compound 3.16 µM
[28] = second compound 1 µM, first compound 10 µM
[29] = second compound 3.16 µM, first compound 0.1 µM
[30] = second compound 3.16 µM, first compound 1 µM
[31] = second compound 3.16 µM, first compound 3.16 µM
[32] = second compound 3.16 µM, first compound 10 µM
[33] = second compound 10 µM, first compound 0.1 µM
[34] = second compound 10 µM, first compound 1 µM
[35] = second compound 10 µM, first compound 3.16 µM
[36] = second compound 10 µM, first compound 10 µM
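Further: spheroids exposed to compounds for seven days before readout.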
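Wherever viability, T/C is given: percent viability relative to DMSO vehicle control wells as 100%.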

`CCc1c2c(nc3ccc(O)cc13)-c1cc3c(c(=O)n1C2)COC(=O)[C@]3(O)CC` + Cc1[nH]c2ccc(F)cc2c1-c1nc2c3cccnc3c3ncccc3c2[nH]1 gave an IC50 (second compound 0.0316 µM) of 4.64 nM, an IC50 (second compound 0.1 µM) of 5.56 nM and an IC50 (second compound 0.316 µM) of 7.02 nM. It also gave an IC50 (second compound 1 µM) of 6.08 nM, an IC50 (second compound 3.16 µM) of 7.23 nM and an IC50 (second compound 10 µM) of 4.06 nM. It also gave a viability, T/C (second compound 0.0316 µM, first compound 0.000999 µM) of 76.6%, a viability, T/C (second compound 0.0316 µM, first compound 0.00316 µM) of 58.1% and a viability, T/C (second compound 0.0316 µM, first compound 0.00999 µM) of 35.2%. For the same compound, the viability, T/C [1] was 20.1%, the viability, T/C (second compound 0.0316 µM, first compound 0.0999 µM) was 17.6% and the viability, T/C [2] was 6.23%. For the same compound, the viability, T/C (second compound 0.1 µM, first compound 0.000999 µM) was 78.8%, the viability, T/C (second compound 0.1 µM, first compound 0.00316 µM) was 62.2% and the viability, T/C (second compound 0.1 µM, first compound 0.00999 µM) was 35.6%. It also gave a viability, T/C [3] of 27.4%, a viability, T/C (second compound 0.1 µM, first compound 0.0999 µM) of 10.9% and a viability, T/C [4] of 5.79%. It also gave a viability, T/C (second compound 0.316 µM, first compound 0.000999 µM) of 83.4%, a viability, T/C (second compound 0.316 µM, first compound 0.00316 µM) of 71.4% and a viability, T/C (second compound 0.316 µM, first compound 0.00999 µM) of 38.2%. The viability, T/C [5] was 22.4%, the viability, T/C (second compound 0.316 µM, first compound 0.0999 µM) was 15.7% and the viability, T/C [6] was 3.93%. It also gave a viability, T/C (second compound 1 µM, first compound 0.000999 µM) of 71.4%, a viability, T/C (second compound 1 µM, first compound 0.00316 µM) of 60.9% and a viability, T/C (second compound 1 µM, first compound 0.00999 µM) of 41.6%. It also gave a viability, T/C [7] of 23.8%, a viability, T/C (second compound 1 µM, first compound 0.0999 µM) of 12.5% and a viability, T/C [8] of 7.51%. For the same compound, the viability, T/C (second compound 3.16 µM, first compound 0.000999 µM) was 98.3%, the viability, T/C (second compound 3.16 µM, first compound 0.00316 µM) was 73.2% and the viability, T/C (second compound 3.16 µM, first compound 0.00999 µM) was 38.1%. It also gave a viability, T/C [9] of 24.4%, a viability, T/C (second compound 3.16 µM, first compound 0.0999 µM) of 13.3% and a viability, T/C [10] of 5.95%. It also gave a viability, T/C (second compound 10 µM, first compound 0.000999 µM) of 76.1%, a viability, T/C (second compound 10 µM, first compound 0.00316 µM) of 50% and a viability, T/C (second compound 10 µM, first compound 0.00999 µM) of 37.8%. It also gave a viability, T/C [11] of 27.7%, a viability, T/C (second compound 10 µM, first compound 0.0999 µM) of 10.8% and a viability, T/C [12] of 6.05%.

`Nc1ccn(C2OC(CO)C(O)C2(F)F)c(=O)n1` (stereo not drawn) + Cc1[nH]c2ccc(F)cc2c1-c1nc2c3cccnc3c3ncccc3c2[nH]1 showed an IC50 (second compound 0.0316 µM) of 50.5 nM, an IC50 (second compound 0.1 µM) of 40 nM and an IC50 (second compound 0.316 µM) of 42.1 nM. For the same compound, the IC50 (second compound 1 µM) was 54.1 nM, the IC50 (second compound 3.16 µM) was 54.4 nM and the IC50 (second compound 10 µM) was 57.4 nM. The viability, T/C [1] was 71.8%, the viability, T/C [13] was 18.2% and the viability, T/C [2] was 10.3%. It also gave a viability, T/C [14] of 9.1%, a viability, T/C [15] of 11.2% and a viability, T/C [16] of 10.4%. It also gave a viability, T/C [3] of 56.6%, a viability, T/C [17] of 24.9% and a viability, T/C [4] of 9.79%. For the same compound, the viability, T/C [18] was 9.89%, the viability, T/C [19] was 11.8% and the viability, T/C [20] was 9.87%. The viability, T/C [5] was 58%, the viability, T/C [21] was 25.7% and the viability, T/C [6] was 12%. The viability, T/C [22] was 10.1%, the viability, T/C [23] was 9.86% and the viability, T/C [24] was 11.9%. It also gave a viability, T/C [7] of 71.3%, a viability, T/C [25] of 25.6% and a viability, T/C [8] of 9.77%. For the same compound, the viability, T/C [26] was 10.7%, the viability, T/C [27] was 12.2% and the viability, T/C [28] was 12.2%. For the same compound, the viability, T/C [9] was 69.7%, the viability, T/C [29] was 27.8% and the viability, T/C [10] was 10.8%. For the same compound, the viability, T/C [30] was 12.1%, the viability, T/C [31] was 11.2% and the viability, T/C [32] was 13.9%. It also gave a viability, T/C [11] of 71.8%, a viability, T/C [33] of 29.8% and a viability, T/C [12] of 10.8%. For the same compound, the viability, T/C [34] was 10.4%, the viability, T/C [35] was 10.2% and the viability, T/C [36] was 10.8%.

For `C#Cc1c(F)ccc2cc(O)cc(-c3ncc4c(N5CC6CCC(C5)N6)nc(OCC56CCCN5CC(F)C6)nc4c3F)c12` (stereo not drawn) + Cc1[nH]c2ccc(F)cc2c1-c1nc2c3cccnc3c3ncccc3c2[nH]1, the IC50 (second compound 0.0316 µM) was > 10000 nM, the IC50 (second compound 0.1 µM) was > 10000 nM and the IC50 (second compound 0.316 µM) was > 10000 nM. For the same compound, the IC50 (second compound 1 µM) was > 10000 nM, the IC50 (second compound 3.16 µM) was > 10000 nM and the IC50 (second compound 10 µM) was > 10000 nM. The viability, T/C [1] was 92.5%, the viability, T/C [13] was 95.7% and the viability, T/C [2] was 91.5%. It also gave a viability, T/C [14] of 84.1%, a viability, T/C [15] of 90.3% and a viability, T/C [16] of 89.7%. It also gave a viability, T/C [3] of 93%, a viability, T/C [17] of 102% and a viability, T/C [4] of 101%. The viability, T/C [18] was 109%, the viability, T/C [19] was 103% and the viability, T/C [20] was 93.6%. The viability, T/C [5] was 91%, the viability, T/C [21] was 101% and the viability, T/C [6] was 93.4%. For the same compound, the viability, T/C [22] was 107%, the viability, T/C [23] was 99.1% and the viability, T/C [24] was 87%. For the same compound, the viability, T/C [7] was 105%, the viability, T/C [25] was 89.2% and the viability, T/C [8] was 92.4%. The viability, T/C [26] was 81.5%, the viability, T/C [27] was 109% and the viability, T/C [28] was 93%. The viability, T/C [9] was 98.9%, the viability, T/C [29] was 80.9% and the viability, T/C [10] was 105%. The viability, T/C [30] was 97.6%, the viability, T/C [31] was 90.4% and the viability, T/C [32] was 95.3%. For the same compound, the viability, T/C [11] was 96.6%, the viability, T/C [33] was 92% and the viability, T/C [12] was 82.7%. For the same compound, the viability, T/C [34] was 87.8%, the viability, T/C [35] was 85.1% and the viability, T/C [36] was 86.5%.

For `COc1ccc([C@@H](O)c2cc(-c3ncnc4cc(N5CCOCC5)ccc34)c(F)cc2Cl)nn1` + Cc1cnc(CNC(=O)c2c(=O)c3ccc(N4CCCN(C)CC4)nc3n3c2sc2ccccc23)cn1, the IC50 (second compound 0.0316 µM) was 1100 nM, the IC50 (second compound 0.1 µM) was 486 nM and the IC50 (second compound 0.316 µM) was 321 nM. For the same compound, the IC50 (second compound 1 µM) was 50.1 nM, the IC50 (second compound 3.16 µM) was < 31.6 nM and the IC50 (second compound 10 µM) was < 31.6 nM. For the same compound, the viability, T/C [1] was 94.3%, the viability, T/C [13] was 91.4% and the viability, T/C [2] was 84.5%. It also gave a viability, T/C [14] of 48.5%, a viability, T/C [15] of 39.1% and a viability, T/C [16] of 24.4%. For the same compound, the viability, T/C [3] was 61.6%, the viability, T/C [17] was 67.9% and the viability, T/C [4] was 45.4%. The viability, T/C [18] was 47.9%, the viability, T/C [19] was 31.5% and the viability, T/C [20] was 18.7%. It also gave a viability, T/C [5] of 58.9%, a viability, T/C [21] of 64.7% and a viability, T/C [6] of 46.9%. For the same compound, the viability, T/C [22] was 36.9%, the viability, T/C [23] was 29.5% and the viability, T/C [24] was 16.1%. It also gave a viability, T/C [7] of 49.7%, a viability, T/C [25] of 54.6% and a viability, T/C [8] of 37.2%. For the same compound, the viability, T/C [26] was 45.5%, the viability, T/C [27] was 30.1% and the viability, T/C [28] was 14.2%. The viability, T/C [9] was 46%, the viability, T/C [29] was 43.7% and the viability, T/C [10] was 36.6%. For the same compound, the viability, T/C [30] was 36%, the viability, T/C [31] was 31.9% and the viability, T/C [32] was 14.2%. The viability, T/C [11] was 33.7%, the viability, T/C [33] was 39.7% and the viability, T/C [12] was 36.5%. The viability, T/C [34] was 29.1%, the viability, T/C [35] was 28.8% and the viability, T/C [36] was 14.9%.
